For the experiment, the system named is mung bean cuttings. The experiment in a line: Rooting of mung bean cuttings. Type of experiment: in vivo. The settings on record: IBA 100 μM, saponins 100 ppm; rooting assessed seven days. On the procedure: This effect was increased as saponin concentration increased up to 500 ppm for Balanites mesocarp extract saponins and 50 ppm for Balanites root extract saponins, and up to 100 ppm for Quillaja saponaria bark extract saponins. The treatment solution was replaced by fresh water after 24 h and the rooting was assessed 10 days after the initiation of the experiment. The stimulating effect of saponins on root formation may be related to their hormone-like effect, but their effect on root elongation seems to be mainly due to their influence on increase of water uptake. The enhancing effect of saponins on rooting of mung bean cuttings when applied together with the synthetic plant hormone indole-3-butyric acid (IBA) is shown in Table 17. […] Similar, but weaker, enhancing effect was found with Quillaja bark extract saponins (the treatment solution was replaced by fresh water after 24 h and the rooting was assessed seven days after the initiation of the experiment).

Marks after values point to notes of the source that are not given here.

For `O=C(O)CCCc1c[nH]c2ccccc12` [IBA, indole-3-butyric acid], the Average root length is 10.1 ± 0.4^cd mm and the “Number of roots per cutting” value was 28.3 ± 1.3^c.

The values are drawn from US20080287662A1, “Balanites Aegyptiaca Saponins and Uses Thereof” (priority 2005, published 2008).
